One assay addresses human TLR4 (Homo sapiens, UniProt O00206+Q9Y6Y9). Description: Human TLR4 activating effect (HEK-Blue Human TLR4 Cells, SEAP reporter). The conditions noted are these: 24 hours, SEAP Protein concentration, read-out: EC50 (ng/ml) (converted). The format is cell-based. The procedure: The human TLR4 activating effect was studied using the compounds described in Examples 1 to 17 and monophosphoryl lipid A as Comparative Example A.
Triethanolamine was dissolved at 0.5% (v/v) in injectable distilled water to prepare an aqueous triethanolamine solution. 1 mg of each test drug was dissolved in 0.98 mL of the aqueous triethanolamine solution, and pH of the solution was then adjusted to 7.2 to 7.4 by the addition of 20 μL of 1 M HCl to prepare a 1 mg/mL solution. A dilution series of the test drug was prepared using a medium [DMEM (Nacalai Tesque, Inc.), 10% FBS (Sigma-Aldrich Co. LLC), 50 U/mL penicillin-50 μg/mL streptomycin (Thermo Fisher Scientific Inc.), 1×HEK-Blue Selection (InvivoGen), and 100 μg/mL Normocin (InvivoGen)]. 2×10^5 cells/mL HEK-Blue™ Human TLR4 Cells (InvivoGen) were inoculated to each well of a 96-well microplate for tissue culture (Iwaki), then treated with the test drug, and cultured at 37° C. for 24 hours under 5% CO2. The cells thus cultured were centrifuged at 400×g at 4° C. for 3 minutes. Recombinant SEAP Protein (InvivoGen) was used for a calibration curve. After addition of 180 μL of QUANTI-Blue (InvivoGen) to each well of 96 Well TC-Treated Microplates (Corning, Inc.), 20 μL each of the cell culture supernatant and a standard diluting solution was added to each well, and the plate was left standing at 37° C. for 4 hours. After reaction, absorbance (wavelength: 655 nm) was measured using a microplate reader (PerkinElmer, Inc., EnSpire), and a SEAP Protein concentration was calculated from the calibration curve and used as an index for TLR4 agonist activity. A drug concentration that induced reaction corresponding to 50% of the maximum reaction was calculated as EC50 (ng/mL) from a linear expression using two drug concentrations between which the drug concentration that induced reaction corresponding to 50% of the maximum reaction in each experiment was positioned, and measured values thereof.

Assay [1] has as its system various allergens (Japanese cedar pollen, mite, ragweed, timothy, peanut, milk). The experiment in a line: Immunostimulatory effect on various allergens by sublingual administration (allergen-specific IgG titer). The assay is classed as in vivo, mouse. The conditions noted are these: allergen-sensitized mice, sublingual with allergen, up to 12 weeks; all the allergens; compared with allergen alone. The method, then:
The compound described in Example 2(2e) was used to study its immunostimulatory effect on various allergens by sublingual administration.
Japanese cedar pollen antigen extracts were prepared by treating Japanese cedar pollen (Yamizo Pollen Study Group) with a solution containing 0.125 M NaHCO3 and 0.5 M NaCl for 24 hours (4° C.), and then insoluble matter was removed by filtration. The concentration of Cry j 1 contained in the extracts was measured, and the extracts were diluted into 12.5 μg/mL (10000 JAU/mL). Allergen scratch extracts (Torii Pharmaceutical Co., Ltd.) were used as mite, ragweed, timothy, peanut, and milk. Allergen sensitization was performed by intramuscularly administering the allergen (20 μL) to the mouse femoral region 1 week before the start of sublingual administration. The allergen scratch extracts of mite, ragweed, timothy, peanut, or milk were diluted 10-fold with PBS and used in allergen sensitization. Sublingual administration was started from 1 week after sensitization. […]
Each allergen was added at 25 μL/well (Japanese cedar pollen, 1 μg Cry j 1/mL; mite, ragweed, timothy, peanut, and milk, 1:1000 diluted) to a plate for ELISA, which was then left standing overnight at 4° C. […] Then, 30 μL of a TMB stop solution was added to each well, and absorbance at 450 nm was measured. […]

The next assay has as its system SARS-CoV-2 RBD. The conditions noted are these: mouse, in vivo.

Sequence of human TLR4 (O00206 24-839): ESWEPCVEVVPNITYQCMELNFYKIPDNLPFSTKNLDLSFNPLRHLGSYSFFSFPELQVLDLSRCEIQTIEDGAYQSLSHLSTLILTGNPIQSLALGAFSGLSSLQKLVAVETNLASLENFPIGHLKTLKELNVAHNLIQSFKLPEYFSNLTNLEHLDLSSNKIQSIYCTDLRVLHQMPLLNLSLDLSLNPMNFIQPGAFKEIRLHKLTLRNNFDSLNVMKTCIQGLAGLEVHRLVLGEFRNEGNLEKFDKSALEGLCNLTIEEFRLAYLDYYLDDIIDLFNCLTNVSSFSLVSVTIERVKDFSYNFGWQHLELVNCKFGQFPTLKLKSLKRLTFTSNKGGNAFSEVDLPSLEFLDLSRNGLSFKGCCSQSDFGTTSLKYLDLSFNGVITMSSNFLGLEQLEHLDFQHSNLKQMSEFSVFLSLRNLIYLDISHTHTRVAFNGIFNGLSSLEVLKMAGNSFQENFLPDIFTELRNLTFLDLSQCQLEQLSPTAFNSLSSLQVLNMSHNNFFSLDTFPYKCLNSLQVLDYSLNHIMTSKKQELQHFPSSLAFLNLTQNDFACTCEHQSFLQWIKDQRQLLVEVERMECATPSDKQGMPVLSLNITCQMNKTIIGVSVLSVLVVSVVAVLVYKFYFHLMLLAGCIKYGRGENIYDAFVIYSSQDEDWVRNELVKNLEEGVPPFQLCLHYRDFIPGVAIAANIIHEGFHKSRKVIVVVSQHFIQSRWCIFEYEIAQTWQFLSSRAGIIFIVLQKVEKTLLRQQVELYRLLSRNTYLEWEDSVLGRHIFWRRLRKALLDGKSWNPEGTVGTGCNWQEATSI
Sequence of human TLR4 (Q9Y6Y9 17-160 limits assumed): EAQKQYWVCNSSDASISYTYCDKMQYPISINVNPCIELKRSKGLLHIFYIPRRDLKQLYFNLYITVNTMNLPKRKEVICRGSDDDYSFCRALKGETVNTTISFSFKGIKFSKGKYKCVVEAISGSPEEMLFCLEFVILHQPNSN

Regarding `CCCCCCCCCCC[C@H](CC(=O)N[C@@H](CO[C@@H]1O[C@H](CO[C@]2(C(=O)O)C[C@@H](O)[C@@H](O)[C@@H]([C@H](O)CO)O2)[C@@H](OP(=O)(O)O)[C@H](OC(=O)C[C@@H](CCCCCCCCCCC)OC(=O)CCCCCCCCC)[C@H]1NC(=O)C[C@@H](CCCCCCCCCCC)OC(=O)CCCCCCCCC)CC(=O)O)OC(=O)CCCCCCCCC` [Example 2(2e), Ammonium (3R)-3-{[(3R)-3-(decanoyloxy)tetradecanoyl]amino}-4-({3-O-[(3R)-3-(decanoyloxy)tetradecanoyl]-2-{[(3R)-3-(decanoyloxy)tetradecanoyl]amino}-2-deoxy-6-O-(3-deoxy-α-D-manno-oct-2-ulopyranonosyl)-4-O-phosphono-β-D-glucopyranosyl}oxy)butanoate], the EC50 on human TLR4 is 0.0499 nM. For the same compound, the “allergen-specific IgG titer in blood” value in assay [1] is reported as “markedly higher”. Further, in the assay on SARS-CoV-2 RBD, the “anti-RBD IgA in blood” value is given as “markedly high”, the “anti-RBD IgA in nasal wash” value is given as “induced at a high level” and the “anti-RBD IgG in blood” value is “markedly high”.

As to `CCCCCCCCCCC[C@H](CC(=O)NC1C(CC[C@H](NC(=O)C[C@@H](CCCCCCCCCCC)OC(=O)CCCCCCCCC)C(=O)O)OC(COC2(C(=O)O)CC(O)C(O)C([C@H](O)CO)O2)C(OP(=O)(O)O)C1OC(=O)C[C@@H](CCCCCCCCCCC)OC(=O)CCCCCCCCC)OC(=O)CCCCCCCCC` (stereo partly drawn) [Example 14(14d), Ammonium 5,9-anhydro-7-O-[(3R)-3-(decanoyloxy)tetradecanoyl]-2,6-bis{[(3R)-3-(decanoyloxy)tetradecanoyl]amino}-2,3,4,6-tetradeoxy-10-O-(3-deoxy-α-D-manno-oct-2-ulopyranonosyl)-8-O-phosphono-D-erythro-L-galacto-decanoate], on human TLR4, the EC50 was 0.188 nM. Same read-out and setting: as for `CCCCCCCCCCC[C@H](CC(=O)NC1C(CC[C@H](NC(=O)C[C@@H](CCCCCCCCCCC)OC(=O)CCCCCCCCC)C(=O)O)OC(CF)C(OP(=O)(O)O)C1OC(=O)C[C@@H](CCCCCCCCCCC)OC(=O)CCCCCCCCC)OC(=O)CCCCCCCCC` (stereo partly drawn) [Example 16(16b), Ammonium 5,9-anhydro-7-O-[(3R)-3-(decanoyloxy)tetradecanoyl]-2,6-bis{[(3R)-3-(decanoyloxy)tetradecanoyl]amino}-2,3,4,6,10-pentadeoxy-10-fluoro-8-O-phosphono-D-erythro-L-galacto-decanoate], the figure is 1.01 nM; as for `CCCCCCCCCCC[C@H](CC(=O)NC1C(OC[C@H](NC(=O)C[C@@H](CCCCCCCCCCC)OC(=O)CCCCCCCCC)C(=O)O)OC(COC2OC(C(=O)O)C(O)C(O)C2O)C(OP(=O)(O)O)C1OC(=O)C[C@@H](CCCCCCCCCCC)OC(=O)CCCCCCCCC)OC(=O)CCCCCCCCC` (stereo partly drawn) [Example 6(6b), Ammonium (2S)-2-{[(3R)-3-(decanoyloxy)tetradecanoyl]amino}-3-({3-O-[(3R)-3-(decanoyloxy)tetradecanoyl]-2-{[(3R)-3-(decanoyloxy)tetradecanoyl]amino}-2-deoxy-6-β-D-glucopyranuronosyl-4-O-phosphono-β-D-glucopyranosyl}oxy)propanoate], 0.0661 nM. As to `CCCCCCCCCCC[C@H](CC(=O)NC1C(CC[C@@H](CC(=O)O)NC(=O)C[C@@H](CCCCCCCCCCC)OC(=O)CCCCCCCCC)OC(COC2(C(=O)O)CC(O)C(O)C([C@H](O)CO)O2)C(OP(=O)(O)O)C1OC(=O)C[C@@H](CCCCCCCCCCC)OC(=O)CCCCCCCCC)OC(=O)CCCCCCCCC` (stereo partly drawn) [Example 11(11d), Ammonium 6,10-anhydro-8-O-[(3R)-3-(decanoyloxy)tetradecanoyl]-3,7-bis{[(3R)-3-(decanoyloxy)tetradecanoyl]amino}-2,3,4,5,7-pentadeoxy-11-O-(3-deoxy-α-D-manno-oct-2-ulopyranonosyl)-9-O-phosphono-D-erythro-L-galacto-undecanoate], the EC50 at human TLR4 was 0.291 nM. Turning to `CCCCCCCCCCC[C@H](CC(=O)N[C@H]1[C@H](OC[C@H](NC(=O)C[C@@H](CCCCCCCCCCC)OC(=O)CCCCCCCCC)C(=O)O)O[C@H](CO[C@@H]2O[C@H](CO)[C@@H](OP(=O)(O)O)[C@H](O)[C@H]2NC(C)=O)[C@@H](OP(=O)(O)O)[C@@H]1OC(=O)C[C@@H](CCCCCCCCCCC)OC(=O)CCCCCCCCC)OC(=O)CCCCCCCCC` [Example 8(8f), Ammonium (2S)-3-({6-O-[2-acetamido-2-deoxy-4-O-(hydroxyphosphinato)-β-D-glucopyranosyl]-3-O-[(3R)-3-(decanoyloxy)tetradecanoyl]-2-{[(3R)-3-(decanoyloxy)tetradecanoyl]amino}-2-deoxy-4-O-phosphono-β-D-glucopyranosyl}oxy)-2-{[(3R)-3-(decanoyloxy)tetradecanoyl]amino}propanoate], at human TLR4, the EC50 was 0.35 nM.

These data come from US20240002425A1, “NOVEL AMINOALKYL GLUCOSAMINIDE 4-PHOSPHATE DERIVATIVE” (DAIICHI SANKYO COMPANY, LIMITED, priority 2020, published 2024).
